{"source": "paper PMC10850954", "about": "“HDAC6/aggresome processing pathway importance for inflammasome formation is context-dependent” (The Journal of Biological Chemistry, 2024)", "key": {"NLRP3 inflammasome": {"system": "NLRP3 inflammasome", "test": "IL-1β release in PBMCs after NLRP3 inflammasome activation", "format": "cell-based, human", "conditions": "for effect on IL-1β release (in words): all stimulatory conditions (MSU, nigericin, ATP), vs DMSO; for IL-1β reduction as compared to DMSO: compound 24 h, LPS 0.2 ng/ml 4 h", "method": "Figure 3 Effect of […] mediated HDAC6 degradation on NLRP3 inflammasome activation in PBMCs.A, schematic of the mode of action of an HDAC6 degrader. The PROTAC engages both HDAC6 and the E3 ligase cereblon (CRBN), which then leads to ubiquitination and degradation of HDAC6. […] PBMCs (without or with LPS priming for 4 h) were treated with the indicated compounds and HDAC6 levels were detected by immunoblotting with an anti-HDAC6 antibody. Detection of actin was used as a control for loading. CGP, CGP084892 (Caspase-1 inhibitor); AFN700 is an inhibitor of the NF-kB pathway (IKK inhibitor). E, HDAC6 degradation impact on IL-1β release in PBMCs following MSU 200 μg/ml (5 h), nigericin 2 μM (2 h) or ATP 3 mM (0.5 h) treatment. Cells were first primed with 0.2 ng/ml LPS for 4 h at 37 °C, then treated with MSU, nigericin, and ATP as indicated.\nHuman IL-1β and IL-18 were determined with Cisbio HTRF Cisbio Human IL1β (#62HIL1BPET) and Human IL18 (#62HIL18PEG) protocols. All the data were from 3 or 4 independent biological replicates.\nFor BMDM cells, 1.5 × 10^6 cells per well were seeded in six-well plates. After priming with 1 μg/ml LPS (Invivogen #tlrl-b5lps), cells were challenged with 200 μg/ml MSU crystals (Invivogen #tlrl-msu-25) for 6 h or 20 μM nigericin (Sigma-Aldrich #N7143-5MG) for 30 min. […] The supernatant was removed, and fresh medium was added to have cells at a density of around 5 × 10^5 cells/ml. 100 μl cells were seeded in 96-well plate and incubated for 1∼2 days. During the culturing, dTAG was added when needed to degrade the DARPin. […] For PBMCs, 3 × 10^4 cells per were seeded, and primed with 0.2 ng/ml LPS for 4 h and then incubated with MSU 200 μg/ml (5 h), nigericin 2 μM (2 h) or ATP 3 mM (0.5 h). For pyrin inflammasome, U937-pyrin cells were seeded in 96 well after 0.5 μM PMA treatment for 3 h and then challenged by BAA473 (200 μM) for 4 h at 37 °C."}, "U937-pyrin cells": {"system": "U937-pyrin cells", "test": "Cell viability (resazurin) of U937-pyrin cells, pyroptosis", "format": "cell-based, human", "conditions": "BAA473 activation, resazurin assay", "method": "Cell viability of PBMCs and U937 cells was checked with PrestoBlue HS Cell Viability Reagent (Invitrogen # P50200) according to the manufacturer’s instructions. After incubation for 1 to 2 h, fluorescence was determined with a PheraStar plate reader under Ex/Em = 540/590 nm.\nSupplementary file mmc1.pdf: Supporting Figure S1 BMDM cells were primed by LPS (1 μg/ml) for 4 hrs and then challenged with 20 μM nigericin. 50 μl supernatant was collected every 15 min (up to 90 min) and mIL-1β level was determined by HTRF assay. […] Supporting Figure S2: A, immunoblot of HDAC1, HDAC2 and HDAC6 protein level in WT THP-1 cells vs DMSO or dTAG treated F10-FKBP^F36V THP-1 cells. DARPin F10 was detected by anti-HA antibody. B, FKBP^F36V THP-1 cells were established for evaluating the possible effect of dTAG on IL-1β release. Cells were first treated with PMA (0.5 μM) for 3 hr, then medium was changed and vehicle or dTAG was added (1 μM), followed by 20 μM nigericin for 3 hr. Supporting Figure S3: A, CTG cell viability assay to analyze degrader XY-07-035 toxicity in HEK293T, Jurkat and U937 cells. Cells were treated with different concentrations of the degrader, and cell viability determined by CTG assay was normalized to the non-treated group. […] Supporting Figure S4: Cell viability was measured by resazurin assay, and fluorescence intensity was a representative of the viability."}}, "note": "“Also recorded” adds a separate entry of the source."}
{"smiles": "CN(C(=O)CCCNc1cccc2c1C(=O)N(C1CCC(=O)NC1=O)C2=O)c1ccc(NC(=O)CCCCCCC(=O)NO)cc1", "note": "(stereo not shown) [XY-07-35]", "values": [{"measurement": "effect on IL-1β release (in words)", "setting": "NLRP3 inflammasome", "result": "clearly reduced"}, {"measurement": "IL-1β reduction as compared to DMSO", "setting": "NLRP3 inflammasome; ATP 3 mM 0.5 h", "result": 40, "unit": "%"}, {"measurement": "IL-1β reduction as compared to DMSO", "setting": "NLRP3 inflammasome; MSU 200 μg/ml 5 h", "result": "ca. 60%"}, {"measurement": "IL-1β reduction as compared to DMSO", "setting": "NLRP3 inflammasome; nigericin 2 μM 2 h", "result": 40, "unit": "%"}, {"measurement": "cell viability / protection from pyroptosis", "setting": "U937-pyrin cells", "result": "did not protect cells from pyroptosis; also recorded: No significant difference"}]}
{"smiles": "CN1C(=O)CCC(N2C(=O)c3cccc(NCCCC(=O)N(C)c4ccc(NC(=O)CCCCCCC(=O)NO)cc4)c3C2=O)C1=O", "note": "(stereo not shown) [XY-07-191]", "values": [{"measurement": "effect on IL-1β release (in words)", "setting": "NLRP3 inflammasome", "result": "partial inhibition"}, {"measurement": "cell viability / protection from pyroptosis", "setting": "U937-pyrin cells", "result": "No significant difference"}]}
